Laboratory results taken from patent publication US20170065564A1, “BIS-CYCLIC GUANIDINE COMPOUND COMPOSITIONS, METHODS OF USE AND TREATMENT THEREOF” (University of South Florida, priority 2014, published 2017).

Columns and labels:
P. aeruginosa = experiment: MIC reanalysis in the presence of the efflux inhibitor reserpine; assay type: cell-based, Pseudomonas aeruginosa; conditions: P. aeruginosa isolate 1420; 100 μM of reserpine or 2 μM of compound 1 individually
Text: Given the minor variations observed in MIC for three of the Gram-negative organisms, and that these particular bacteria are renowned for efflux detoxification of antibacterial agents, we hypothesized that the differences observed likely relate to variation in efflux pump activity between strains. […] The effects observed appear to be universal, regardless of strain or compound tested. […] It should be noted that the data presented herein represents a worst-case scenario. […] Similar data was returned for all front runner agents, against all 10 isolates of the three Gram-negative organisms (data not shown). These findings support the hypothesis that inherent efflux mechanisms of certain Gram-negative organisms result in MIC variations for the lead bis-cyclic guanidines between clinical isolates.

K. pneumoniae = experiment: Resistance serial passage assay; assay type: cell-based, Klebsiella pneumoniae; conditions: 8 passages, concentration doubled each day
Experimental: (§1) ESKAPE pathogens were grown overnight in liquid media at 37° C. These cultures were then diluted 1:100 in fresh media, and seeded into a 96-well plate. Lead bis-cyclic guanidines or control agents were added to respective wells at half MIC concentrations. Plates were then incubated for 24 hours at 37° C., with bacteria removed from these cultures on the following day, to inoculate fresh media (1:100 dilution) containing compounds at a 2-fold higher concentrations. These were then grown overnight, and the procedure repeated for a total of eight days. […] Each experiment was performed in triplicate, yielding identical results.

E. faecium = experiment: Resistance serial passage assay; assay type: cell-based, Enterococcus faecium; conditions: 8 passages, concentration doubled each day
Experimental: as §1

A. baumannii = experiment: Resistance serial passage assay; assay type: cell-based, Acinetobacter baumannii; conditions: 8 passages, concentration doubled each day
Experimental: as §1

S. aureus = experiment: Resistance serial passage assay; assay type: cell-based, Staphylococcus aureus; conditions: 8 passages, concentration doubled each day
Experimental: as §1

[1] = test system: Staphylococcus aureus (USA300 strain FPR3757); experiment: Murine model of lethal peritonitis; assay type: in vivo, mice; conditions: I.V.
Experimental: Using MRSA as a representative ESKAPE organism, we infected mice with 1×10^8 bacterial cells in 5% mucin via intraperitoneal injection. At 1 h post-infection, mice were then I.V. injected with either vancomycin (positive control), or I.M. with our front runner compounds.
Six mice per group were injected with 1×10^8 CFU ml^−1 of Staphylococcus aureus (USA300 strain FPR3757) in PBS containing 5% mucin. […] Mice were monitored twice daily for five days to assess mortality. The clinical endpoint of this study was when the mice reached a pre-moribund state. Characteristics of pre-moribund state include: hunched posture, rapid, shallow and/or labored breathing, ruffled fur, lethargy, failure to respond to stimuli, soiled anogenital area, paralysis, paresis, head tilt, circling, vocalizations, non-purposeful movements and/or were unable to eat or drink. Those mice reaching this state prior to the completion of the 5 day infection period were euthanized. The number of mice surviving between control and treatment groups was compared and analyzed for statistical significance using a log rank test.

[2] = test system: human red blood cells (hRBCs)
Experimental: A hemolysis assay was performed using whole human blood (Bioreclamation), as described previously,^47 with the following modifications. Human red blood cells (hRBCs) were resuspended 20% v/v in 1× HA buffer (4.25 ml 10% NaCl; 1 ml CaCl2 in 50 ml sterile water), and lead agents were added at a concentration of 10 μM, to a final volume of 100 μl. Cells were incubated for 15 minutes at 37° C. before being centrifuged at 5,500 g for 1 minute to pellet non-lysed hRBCs. The supernatant was removed, added to a 96-well microtiter plate and the OD543 read using a Biotek synergy2 plate reader. The negative control was vehicle only (DMF), and the positive control was 1.0% triton X-100.

With `COC(=O)[C@H]1[C@H]2C[C@@H]3c4[nH]c5cc(OC)ccc5c4CCN3C[C@H]2C[C@@H](OC(=O)c2cc(OC)c(OC)c(OC)c2)[C@@H]1OC` [reserpine, reference compound] the “effect on growth, agent alone” value (P. aeruginosa) was “no effect”.
`CO[C@H]1/C=C/O[C@@]2(C)Oc3c(C)c(O)c4c(O)c(c(/C=N/N5CCN(C)CC5)c(O)c4c3C2=O)NC(=O)/C(C)=C\C=C\[C@H](C)[C@H](O)[C@@H](C)[C@@H](O)[C@@H](C)[C@H](OC(C)=O)[C@@H]1C` [rifampin, reference compound] was tested, and the “increase in MIC after serial passage” value (K. pneumoniae) was 128 fold.
`CN(C)[C@@H]1C(O)=C(C(N)=O)C(=O)[C@@]2(O)C(O)=C3C(=O)c4c(O)cccc4[C@@](C)(O)[C@H]3C[C@@H]12` [tetracycline, reference compound] was tested, and the “increase in MIC after serial passage” value (E. faecium) was 128 fold and the “increase in MIC after serial passage” value (A. baumannii) was 128 fold.
`CN[C@H](CC(C)C)C(=O)N[C@H]1C(=O)N[C@@H](CC(N)=O)C(=O)N[C@H]2C(=O)N[C@H]3C(=O)N[C@H](C(=O)N[C@H](C(=O)O)c4cc(O)cc(O)c4-c4cc3ccc4O)[C@H](O)c3ccc(c(Cl)c3)Oc3cc2cc(c3O[C@@H]2O[C@H](CO)[C@@H](O)[C@H](O)[C@H]2O[C@H]2C[C@](C)(N)[C@H](O)[C@H](C)O2)Oc2ccc(cc2Cl)[C@H]1O` [vancomycin, reference compound] was tested, and the “increase in MIC after serial passage” value (S. aureus) was 128 fold, the protectivity ([1]; 5× MIC, 1 h post-infection (not significant)) was 50% and the protectivity ([1]; 10× MIC, 1 h post-infection) was 100%.
Work on Triton-X100 yielded a hemolysis [2] of 100%.
